In brackets after ≈: the same amount, converted by molar mass.
How the values were obtained:
[1] = tested on: Bacillus anthracis; assay: Antimicrobial activity against Gram-positive Bacillus anthracis str. Sterne after 16 to 24 hrs by micro-dilution method; assay type: functional
[2] = tested on: Bacillus cereus; assay: Antimicrobial activity against Gram-positive Bacillus cereus ATCC 17788 after 16 to 24 hrs by micro-dilution method; assay type: functional
[3] = tested on: Bacillus subtilis; assay: Antimicrobial activity against Gram-positive Bacillus subtilis 168 after 16 to 24 hrs by micro-dilution method; assay type: functional
[4] = tested on: Listeria monocytogenes; assay: Antimicrobial activity against Gram-positive Listeria monocytogenes ATCC 19115 after 16 to 24 hrs by micro-dilution method; assay type: functional
[5] = tested on: Staphylococcus aureus; assay: Antimicrobial activity against Gram-positive Staphylococcus aureus ATCC 29213 after 16 to 24 hrs by micro-dilution method; assay type: functional
[6] = tested on: Staphylococcus aureus; assay: Antimicrobial activity against Gram-positive methicillin-resistant Staphylococcus aureus 1 after 16 to 24 hrs by micro-dilution method; assay type: functional
[7] = tested on: Staphylococcus aureus; assay: Antimicrobial activity against Gram-positive methicillin-resistant Staphylococcus aureus 2 after 16 to 24 hrs by micro-dilution method; assay type: functional
[8] = tested on: Haemophilus influenzae; assay: Antimicrobial activity against Gram-negative Haemophilus influenzae ATCC 51907 after 16 to 24 hrs by micro-dilution method; assay type: functional
[9] = tested on: Pseudomonas aeruginosa; assay: Antimicrobial activity against Gram-negative Pseudomonas aeruginosa PAO1 after 16 to 24 hrs by micro-dilution method; assay type: functional
[10] = tested on: Mycolicibacterium smegmatis; assay: Antimicrobial activity against Mycobacterium smegmatis MC2-155 after 16 to 24 hrs by micro-dilution method; assay type: functional; conditions: str. MC2 155
[11] = tested on: Bacillus anthracis; assay: Potency index, ratio MIC of kanamycin to MIC of compound for Bacillus anthracis str. Sterne; assay type: functional
[12] = Drug metabolism assessed as Escherichia coli AAC(3)-IV mediated compound modification at 100 uM; assay type: ADME
[13] = Drug metabolism assessed as Staphylococcus aureus Bifunctional AAC(6')-1e/APH(2'')-1a mediated compound modification at 100 uM; assay type: ADME
[14] = Drug metabolism assessed as Mycobacterium tuberculosis Eis mediated compound modification at 100 uM; assay type: ADME
[15] = target: T1, Aminoglycoside 3'-phosphotransferase (Escherichia coli, UniProt P00551); assay: Drug metabolism assessed as Escherichia coli APH(3')-Ia-mediated compound modification at 100 uM; assay type: ADME
T1 sequence (P00551 whole entry): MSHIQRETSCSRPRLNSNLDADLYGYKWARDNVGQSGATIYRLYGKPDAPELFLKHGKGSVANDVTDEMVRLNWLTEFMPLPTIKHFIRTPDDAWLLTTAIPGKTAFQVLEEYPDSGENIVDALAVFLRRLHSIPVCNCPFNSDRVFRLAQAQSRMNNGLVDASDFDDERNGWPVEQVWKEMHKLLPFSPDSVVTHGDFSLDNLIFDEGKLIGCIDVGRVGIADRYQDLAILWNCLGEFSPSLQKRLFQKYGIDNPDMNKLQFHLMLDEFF

Row | SMILES | MIC [1] [µg/mL] | MIC [2] [µg/mL] | MIC [3] [µg/mL] | MIC [4] [µg/mL] | MIC [5] [µg/mL] | MIC [6] [µg/mL] | MIC [7] [µg/mL] | MIC [8] [µg/mL] | MIC [9] [µg/mL] | MIC [10] [µg/mL] | Ratio [11] | Drug metabolism [12] | Drug metabolism [13] | Drug metabolism [14] | Drug metabolism [15]
1 | NCC(=O)NC[C@H]1O[C@H](O[C@H]2[C@H](O)[C@@H](O[C@H]3O[C@H](CO)[C@@H](O)[C@H](N)[C@H]3O)[C@H](N)C[C@@H]2N)[C@H](O)[C@@H](O)[C@@H]1O | 2 (≈ 3.69 µM) | 150 (≈ 277 µM) | > 150 | 150 (≈ 277 µM) | 16 (≈ 29.5 µM) | > 128 | > 128 | 150 (≈ 277 µM) | > 150 | > 128 | 64 | metabolite_detected | metabolite_detected | metabolite_detected | 
2 | CCN[C@@H]1C[C@H](N)[C@@H](O[C@H]2OC(CNC(=O)CN)=CC[C@H]2N)[C@H](O)[C@H]1O[C@H]1OC[C@](C)(O)[C@H](NC)[C@H]1O | 0.5 (≈ 0.939 µM) | 75 (≈ 141 µM) | 37.5 (≈ 70.4 µM) | 18.8 (≈ 35.3 µM) | 0.5 (≈ 0.939 µM) | 32 (≈ 60.1 µM) | 1 (≈ 1.88 µM) | 37.5 (≈ 70.4 µM) | 37.5 (≈ 70.4 µM) | 1 (≈ 1.88 µM) |  | metabolite_detected | metabolite_detected | metabolite_detected | metabolite_notdetected
3 | NCC[C@H](O)C(=O)NC[C@H]1O[C@H](O[C@H]2[C@H](O)[C@@H](O[C@H]3O[C@H](CO)[C@@H](O)[C@H](N)[C@H]3O)[C@H](N)C[C@@H]2N)[C@H](O)[C@@H](O)[C@@H]1O | 4 (≈ 6.83 µM) | > 150 | > 150 | > 150 | 32 (≈ 54.6 µM) | 32 (≈ 54.6 µM) | > 128 | > 150 | 150 (≈ 256 µM) | 2 (≈ 3.42 µM) | 32 | metabolite_detected | metabolite_detected | metabolite_detected | 
4 | CN[C@@H]1[C@@H](O)[C@@H](O[C@@H]2[C@@H](O)[C@H](O[C@H]3OC(CNC(=O)CN)=CC[C@H]3N)[C@@H](N)C[C@H]2N)OC[C@]1(C)O | ≤ 0.25 | 75 (≈ 149 µM) | 37.5 (≈ 74.3 µM) | 18.8 (≈ 37.3 µM) | 1 (≈ 1.98 µM) | 8 (≈ 15.9 µM) | 2 (≈ 3.96 µM) | 37.5 (≈ 74.3 µM) | 18.8 (≈ 37.3 µM) | 0.5 (≈ 0.991 µM) |  | metabolite_detected | metabolite_detected | metabolite_detected | metabolite_notdetected
5 | NCC[C@@H](O)C(=O)NC[C@H]1O[C@H](O[C@@H]2[C@@H](O)[C@H](O[C@@H]3O[C@@H](CO)[C@H](O)[C@@H](N)[C@@H]3O)[C@@H](NC(=O)[C@@H](O)CCN)C[C@H]2N)[C@H](O)[C@@H](O)[C@@H]1O (stereo in doubt) | > 128 | 150 (≈ 218 µM) | > 150 | 150 (≈ 218 µM) | 128 (≈ 186 µM) | > 128 | > 128 | > 150 | 75 (≈ 109 µM) | 8 (≈ 11.6 µM) |  | metabolite_detected | metabolite_detected | metabolite_detected | metabolite_notdetected
6 | NCC(=O)NCC[C@H](O)C(=O)N[C@H]1C[C@@H](N)[C@H](O[C@H]2O[C@H](CNC(=O)CN)[C@@H](O)[C@H](O)[C@H]2O)[C@@H](O)[C@@H]1O[C@H]1O[C@H](CO)[C@@H](O)[C@H](N)[C@H]1O (stereo in doubt) | > 128 | > 150 | > 150 | > 150 | > 128 | > 128 | > 128 | > 150 | > 150 | 64 (≈ 91.5 µM) |  | metabolite_detected | metabolite_detected | metabolite_detected | metabolite_notdetected
7 | N[C@H]1[C@H](O)[C@H](O[C@@H]2[C@@H](O)[C@H](O[C@@H]3O[C@@H](CNC(=O)OCc4ccccc4)[C@H](O)C[C@@H]3N)[C@@H](N)C[C@H]2N)O[C@@H](CO)[C@@H]1O (stereo in doubt) | 64 (≈ 106 µM) | > 150 | > 150 | > 150 | 128 (≈ 213 µM) | > 128 | > 128 | 75 (≈ 125 µM) | > 150 | 16 (≈ 26.6 µM) |  | metabolite_detected | metabolite_detected | metabolite_detected | metabolite_notdetected
8 | NCC[C@H](O)C(=O)N[C@@H]1C[C@H](N)[C@@H](O[C@H]2O[C@H](CN)[C@@H](O)[C@H](O)[C@H]2O)[C@H](O)[C@H]1O[C@H]1O[C@H](CO)[C@@H](O)[C@H](N)[C@H]1O [AMIKACIN] | 16 (≈ 27.3 µM) | 9.4 (≈ 16.1 µM) | 37.5 (≈ 64 µM) | 9.4 (≈ 16.1 µM) | 1 (≈ 1.71 µM) | 0.5 (≈ 0.854 µM) | 32 (≈ 54.6 µM) | 37.5 (≈ 64 µM) | 2.3 (≈ 3.93 µM) | ≤ 0.25 |  |  |  |  | 
9 | NC[C@H]1O[C@H](O[C@H]2[C@H](O)[C@@H](O[C@H]3O[C@H](CO)[C@@H](O)[C@H](N)[C@H]3O)[C@H](N)C[C@@H]2N)[C@H](O)[C@@H](O)[C@@H]1O [KANAMYCIN] | > 128 | 9.4 (≈ 19.4 µM) | > 150 | 4.7 (≈ 9.7 µM) | 0.5 (≈ 1.03 µM) | > 128 | > 128 | 9.4 (≈ 19.4 µM) | 37.5 (≈ 77.4 µM) | > 128 |  |  |  |  | 
10 | CCN[C@@H]1C[C@H](N)[C@@H](O[C@H]2OC(CN)=CC[C@H]2N)[C@H](O)[C@H]1O[C@H]1OC[C@](C)(O)[C@H](NC)[C@H]1O [NETILMICIN] | ≤ 0.25 | 4.7 (≈ 9.88 µM) | 4.7 (≈ 9.88 µM) | 2.3 (≈ 4.84 µM) | ≤ 0.25 | ≤ 0.25 | ≤ 0.25 | 2.3 (≈ 4.84 µM) | 2.3 (≈ 4.84 µM) | ≤ 0.25 |  |  |  |  | 
11 | CN[C@@H]1[C@@H](O)[C@@H](O[C@@H]2[C@@H](O)[C@H](O[C@H]3OC(CN)=CC[C@H]3N)[C@@H](N)C[C@H]2N)OC[C@]1(C)O [SISOMICIN] | ≤ 0.25 | 9.4 (≈ 21 µM) | 4.7 (≈ 10.5 µM) | 2.3 (≈ 5.14 µM) | ≤ 0.25 | ≤ 0.25 | ≤ 0.25 | 4.7 (≈ 10.5 µM) | 1.2 (≈ 2.68 µM) | ≤ 0.25 |  |  |  |  | 
12 | NC[C@H]1O[C@H](O[C@H]2[C@H](O)[C@@H](O[C@H]3O[C@H](CO)[C@@H](O)[C@H](N)[C@H]3O)[C@H](N)C[C@@H]2N)[C@H](N)C[C@@H]1O [TOBRAMYCIN] | > 128 | 9.4 (≈ 20.1 µM) | 9.4 (≈ 20.1 µM) | 2.3 (≈ 4.92 µM) | 0.5 (≈ 1.07 µM) | ≤ 0.25 | > 128 | 4.7 (≈ 10.1 µM) | 0.6 (≈ 1.28 µM) | ≥ 128 |  |  |  |  | 
